Tests used:
3T3-L1 cells = details: GPDH activity, oil red O staining; cited from earlier work
leptin = details: cited from earlier work
3T3-L1 preadipocytes = assay: adipocyte differentiation blocking assay (GPDH level in cell lysates); type: cell-based, mouse; details: after 10-fold dilution (FIG. 6)
Description: The adipocyte differentiation blocking assay is an enzyme assay that examines the ability of compounds to block differentiation of preadipocytes to adipocytes by quantifying the level of GPDH in cell lysates (inhibition of adipogenesis). Based on preliminary results using this assay, we selected two plant extracts (designated as PM765, and as PM902, respectively) and collected eluant fractions isolated by HPLC, the extracts being divided into 40 or 120 fractions in collection wells (collected at 30 second or 1 minute HPLC eluant flow time intervals) (FIG. 3). […] MDI treatment is defined as Differentiation media causes the 3T3-L1 preadipocytes (fibroblast cells) to differentiate into adipocytes (fat cells). Differentiation media is composed of: • Per 100 ml of differentiation media • 90 mL DMEM media • 10 mL FCS • 1% pen/strep • 1 ml methylisobutylxanthine (stock 11.5 mg/mL) • 100 ul dexamethasone (stock 0.4 mg/mL) • 1 ml insulin (stock 1 mg/mL)
Inhibition of adipocyte differentiation is assayed by measuring the levels of the enzyme glycerol-3-phosphate dehydrogenase (GPDH). […]
In this assay pre-adipocyte cells require 10 to 15 days to differentiate into adipocytes. […] After cells have undergone the 10–15 days required to differentiate, cells are assessed for GPDH activity.
Results are expressed as a percentage of the untreated control average. […]

adipocytes = assay: assays of this invention (lipolysis, adipocyte differentiation, de-differentiation); type: cell-based, mouse
Experimental: Assay 1. Lipolysis Assay.
In this assay, pre-adipocyte cells are seeded in 96-well plates and are induced to convert to adipocytes over the course of a 10–15 day treament with lipolytic reagents. After cells have converted to adipocytes, the cells are starved, and then subsequently treated with or exposed to test compounds or mixtures of compounds or extracts of plants or fractionated extracts of plants. The adipocytes are treated with test compounds in the presence of a surrounding cell medium. Over the course of 1 to 3 hours after exposure to the test compounds or mixture of compounds, the amount of glycerol present in the cell medium is measured. Glycerol and fatty acids are hydrolysis products of triglycerides, and glycerol is released from cells after enzymatic hydrolysis or breakdown of lipids.
Assay 2. […]
In this assay pre-adipocyte cells require 10 to 15 days to differentiate into adipocytes. […] After cells have undergone the 10–15 days required to differentiate, cells are assessed for GPDH activity. […]
This assay comprises a colorimetric assay to screen for compounds and mixtures of compounds that induce the differentiation of adipocytes to preadipocytes. The presence of such compounds is determined by measuring the relative levels of the enzyme GPDH. […] GPDH levels present in the cells are measured to determine if the cells still express the adipocyte phenotype. […]

[1] = in vivo; cited from earlier work

Row | Compound | differentiation of preadipocytes (3T3-L1 cells) | effect on leptin levels (leptin) | blocking of adipocyte differentiation, as a percent of positive control (3T3-L1 preadipocytes) | activity in the assays of this invention (adipocytes) | decrease of the amount of fat absorbed from the diet [1]
1 | myostatin: adipocyte blocking agent, inhibitor of skeletal muscle growth, member of the TGF-β superfamily | inhibits differentiation of preadipocytes | no effect | – | – | –
2 | CC1(C)CCC[C@]2(C)[C@H]3CC(=O)O[C@]3(C)CC[C@@H]12 [sclareolide, 3aR-[3a-alpha, 5a-beta, 9a-alpha, 9b-alpha]-decahydro-3a,6,6,9a-tetramethylnaphtho[2,1-b]furane-2(1H)-one] | – | – | blocking of adipocyte differentiation | active | –
3 | CCCCCCCCCCC[C@@H](C[C@@H]1OC(=O)[C@H]1CCCCCC)OC(=O)[C@H](CC(C)C)NC=O [Orlistat] | – | – | – | – | about 30%
4 | C=C[C@](C)(O)CC[C@@H]1[C@@]2(C)CCCC(C)(C)[C@@H]2CC[C@@]1(C)O [sclareol, labdane-14-ene-8,13-diol] | – | – | blocking of adipocyte differentiation | active | –
